# Reference: US20190125648A1, “COMPOSITION FOR PREVENTING, IMPROVING OR TREATING HAIR LOSS COMPRISING DEOXYCHOLIC ACID AS ACTIVE INGREDIENT” (priority 2016, published 2019)
# Tested on: B6CBAF1/j hybrid mice
# Assay: Testosterone-induced hair loss in mice: hair loss area and follicle count
# Assay type: in vivo
# Conditions: after two weeks; testosterone 10 mg/ml + each test substance 1 mg/ml; compared to testosterone alone (group T); FIG. 3
# Description: B6CBAF1/j hybrid mice (5 weeks old, male, Charles River Japan) were acclimated for one week in a breeding room and then used from the time of 6 weeks after birth.
# For use in an injection agent, a solvent was prepared to contain 15% of ethanol, 5% of NMP, and 80% of PBS. Solutions were prepared by mixing the solvent with the following solutes: group T (testosterone 10 mg/ml), group TD (testosterone 10 mg/ml+deoxycholic acid 1 mg/ml), group TR (testosterone 10 mg/ml+resveratrol 1 mg/ml), group TF (testosterone 10 mg/ml+finasteride 1 mg/ml), and group TRF (testosterone 10 mg/ml+resveratrol 1 mg/ml+finasteride 1 mg/ml).
# The animals were anesthetized with isoflurane through inhalation and injected subcutaneously at the neck with 100 μl of a testosterone solution (10 mg/ml) every day. From a couple of weeks, they were photographed along with a scale bar to quantify a hair loss area. After six weeks of testing, the mice were sacrificed by means of a CO2 incubator. Test areas of the skin were taken, fixed with formalin, and prepared into paraffin blocks. The blocks were horizontally sectioned and dyed with H&E (Hematoxylin & Eosin) to count follicles per mm^2.
structure (smiles),measurement,value
Oc1ccc(C=Cc2cc(O)cc(O)c2)cc1 [resveratrol],increment in hair loss area,greatly reduced
